For this assay, the system named is K562. The assay is described as follows: Cytotoxicity against Homo sapiens (human) K562 cells after 24 hr by MTT assay. Type of assay: functional, cell-based. The settings on record: K562, 24 h.
For `CC(C)[C@H](NC(=O)c1ccccc1)c1n[nH]c(=S)o1`, the IC50 came to 245 µM.
On to `O=C(/C=C/c1ccccc1)N[C@H](CO)c1n[nH]c(=S)o1`, for which the IC50 was determined as 435 µM.
To `C[C@H](NC(=O)c1ccc(Cl)cc1)c1n[nH]c(=S)n1N` belongs 98.6 µM.
In turn, `C[C@H](NC(=O)c1ccccc1)c1n[nH]c(=S)n1N` returned an IC50 of 372 µM.
Molecule `C[C@H](NC(=O)Cc1ccccc1)c1n[nH]c(=S)o1` had an IC50 of 1020 µM.
Regarding `CC(C)[C@H](NC(=O)c1ccc([N+](=O)[O-])cc1)c1n[nH]c(=S)o1`, the IC50 came to 43.6 µM.
As to `NC(=O)NO` [HYDROXYUREA], the IC50 came out at 688 µM.
On to `C[C@H](NC(=O)c1ccc(Cl)cc1)c1n[nH]c(=S)o1`, for which the IC50 stood at 31.1 µM.
To `CC(C)[C@H](NC(=O)c1ccccc1)c1n[nH]c(=S)n1N` belongs 154 µM; to `C[C@H](NC(=O)c1cccnc1)c1n[nH]c(=S)o1`, 739 µM; to `COc1ccc(/C=C/C(=O)N[C@H](C)c2n[nH]c(=S)o2)cc1`, 330 µM.
Then `C[C@H](NC(=O)c1ccccc1)c1n[nH]c(=S)o1`, with 377 µM.

The values are drawn from ChEMBL document CHEMBL3046440, “Synthesis and antitumor evaluation of some 1,3,4-oxadiazole-2(3H)-thione and 1,2,4-triazole-5(1H)-thione derivatives” (Med Chem Res, 2012).
